# From patent publication US12318393B2, “Modulators of orphan nuclear receptors for NASH and other metabolic disorders” (Emory University, priority 2018, dated 2025)
# Test system: high-fat-fed C57BL/6 mice
# Assay: High-fat-diet C57BL/6 mice, Compound 1 7.5 mg/kg with antagomiR-control or antagomiR-122
# Assay type: in vivo
# Protocol: C57BL/6 mice were fed a 50% high fat diet (HFD) for four weeks. The control cohort received three hydrodynamic tail vein injections of a 5 μg antagomiR-control and six i.p injections of saline over three weeks. A second cohort was hydrodynamic tail vein injected with 5 μg antagomiR-122 (the reverse complement that inhibits activity of miR-122) three times and i.p injections of saline six times over three weeks. A third cohort was injected i.p. with Compound 1 (7.5 mg/kg) twice a week plus antagomiR-control once a week over the course of 3 weeks. The final cohort was injected i.p. with Compound 1 (7.5 mg/kg) twice a week plus antagomiR-122 injections once a week over the course of 3 weeks.
# High Fat diet fed mice. C57BL/6 male mice were fed for 8 weeks a 50% high fat diet (Envigo, DIETTD150235). All mice were kept in a pathogen-free facility, under a 12 h light/dark cycle. Research on mice was approved by the Hebrew University Institutional Animal Care and Ethics Committee.
# Compound 1 and AntagomiR injections to mice. C57BL/6 male mice, 7-8 weeks old, or Sgp130FC, 9-month-old male mice, were injected i.p. with 7.5 mg/kg Compound 1 dissolved in saline and 3% DMSO. Saline was injected as control. Mice were hydrodynamic tail vain injected with antagomiR-122 or antagomiR-control (negative control) (5 μg/mouse in 1.5 ml saline). Mice were sacrificed according to the legend of the figure describing the experimental results and the livers, white adipose and skeletal muscle tissues were frozen in liquid nitrogen or in OCT embedded frozen blocks, for further RNA and histologic analysis. AntagomiRs were obtained from Sigma Aldrich, see Table 3.
# Triglycerides and β-hydroxybutyrate quantification. To determine the liver and muscle lipid content, muscle and liver tissues (40-80 mg) were homogenized in 0.5 ml of chloroform: Tris solution (v/v, 1:1), the homogenate was transferred to 1 ml of chloroform: methanol solution (v/v, 2:1) centrifuged at 3000 rpm for 10 min. The organic phase was mixed with 5% Triton X100 in chloroform, dried and re-dissolved in water. After lipid extraction, TG concentration in samples was measured with Triglyceride Quantification Kit (BioVision), according to the manufactures instructions. β-hydroxybutyrate was determined utilizing commercial colorimetric kits (BioVision) directly from plasma samples.
# In an effort to determine whether the mechanism of action of miR-122 and Compound 1 are aligned at the same pathway, an experiment was designed in which both molecules, together and each separately, were administered. In this study, mice were fed with a 50% HFD and therapy was initiated 4 weeks after the animals were already on a diet, to establish NASH prior to treatment. Therapies (antagomiRs given once a week, due to a prolonged half time, and RS twice weekly, due to a plasma t/2 of 2.7 hrs) were initiated after 4 weeks and given for 3 weeks. The mice were weighed from week 3 and therapies initiated a week later. […] The liver was further analyzed to assess lipotoxicity. […] A surrogate marker for energy expenditure, β-hydroxybutyrate, was also measured. A reduction in energy expenditure is associated with reduced miR-122, and energy expenditure increased upon treating with Compound 1.
# Male C57BL/6J mice, 7 to 8 weeks old, were housed randomly in standard cages and were fed a HFD, or atherogenic diet (consisting 1% Chol and 0.5% cholic acid, see also Table 3). All mice had free access to water during the experimental period. During the feeding period body weight was monitored every 3 days. In the HFD experiment, after 4 or 6 weeks, the resultant obese mice were treated with antagomiR-122 ([…] once a week for 3 weeks), or i.p. injected with Compound 1 (RORα agonist, 7.5 mg/kg twice a week for 3 weeks; or 15 mg/kg 3 times a week for 3 weeks). The obese control (HFD) group was administered only saline with DMSO and antagomiR-control. […]
substance,measurement,setting,value
"antagomiR-122: small synthetic RNA, 2'-O-Me/phosphorothioate modified, cholesterol-linked, reverse complement that inhibits activity of miR-122 (antisense ACAAACACCAUUGUCACAC; 2'-O-methyl, phosphorothioate, cholesterol-linked, pattern not given here) [reference compound]",final body weight,"5 μg antagomiR hydrodynamic tail vein injection three times over three weeks, HFD",32 g
same,TG content in the muscle,"50% HFD, treatment for 3 weeks",increased
